Measurements: patent publication US9540369B2, “Use of kinase inhibitors to increase the susceptibility of gram positive bacteria to beta lactam antibiotics” (Wisconsin Alumni Research Foundation, priority 2014, dated 2017)
“Also recorded” adds a separate entry of the source.

Assays:
L. monocytogenes [1] = experiment: Broth growth curves of L. monocytogenes with antibiotic in presence or absence of kinase inhibitor; format: cell-based, Listeria monocytogenes; conditions: for inhibition of growth in a β-lactam synergistic dependent manner: ceftriaxone; for synergy with ceftriaxone against L. monocytogenes: AIA drugs at 10 μM
[2] = tested on: Methicillin-resistant S. aureus (strain USA300); experiment: Broth growth curves of Methicillin-resistant S. aureus (USA300) with antibiotic in presence or absence of kinase inhibitor; format: cell-based, Staphylococcus aureus
PrkA [3] = experiment: In vitro protein phosphorylation (autophosphorylation and MBP phosphorylation), PrkA; format: biochemical, L. monocytogenes; conditions: 1 μM, 10 μM or 100 μM inhibitor
Method: (§1) In vitro protein phosphorylation. […] To investigate substrate-level phosphorylation, ˜10 μg of myelin basic protein (Novatein Biosciences, Woburn, Mass.) were added to the reaction mixture described above and incubated at room temperature, overnight. The reactions were terminated by adding 5X SDS loading buffer. Samples were fractionated by SDS-PAGE, fixed and dried, and analyzed by autoradiography.

Lmo0618 = experiment: In vitro protein phosphorylation (autophosphorylation and MBP phosphorylation), Lmo0618; format: biochemical, L. monocytogenes; conditions: 1 μM, 10 μM or 100 μM inhibitor
Method: as §1

L. monocytogenes [4] = format: cell-based, Listeria monocytogenes; conditions: β-lactam dependent growth inhibition
M. smegmatis = M. smegmatis growth curves with or without meropenem; format: cell-based, Mycobacterium smegmatis; conditions: 10 μM inhibitor
Method: Various AIA drugs were administered at 10 μM concentration to M. smegmatis, L. monocytogenes, and S. aureus.

PrkA [5] = experiment: Kinase-Glo assay, PrkA; format: biochemical, L. monocytogenes
Stk1 = experiment: Kinase-Glo assay, Stk1; format: biochemical, S. aureus; conditions: 0-40 μM inhibitor, 20 μM ATP, 10 μM MBP
PknB = PknB (Mycobacterium tuberculosis, UniProt P9WI81)
[6] = molecular target: PrkA (PASTA kinase of L. monocytogenes; kinase domain, GST fusion) (Listeria monocytogenes, UniProt A0A0H3GI69); experiment: biochemical
zebrafish (Danio rerio) = experiment: Zebrafish toxicity assay; conditions: administered in their environment for five days
Method: Human kinase inhibitors were administered to zebrafish in their environment for five days.

MSRA = conditions: β-lactam dependent growth inhibition
[7] = 0-40 μM inhibitor, 20 μM ATP, 10 μM MBP

Cc1ncc(-c2ccnc(Nc3ccc(S(C)(=O)=O)cc3)n2)n1C(C)C [AZD5438]
inhibition of growth in a β-lactam synergistic dependent manner (L. monocytogenes [1]; 50 μM AZD5438): capable of inhibiting L. monocytogenes growth | synergy with β-lactam antibiotics against S. aureus ([2]; AZD5438, data not shown): not S. aureus | inhibition of PrkA autophosphorylation and substrate level (MBP) phosphorylation (PrkA [3]): specifically inhibits PrkA | inhibition of Lmo0618 phosphorylation activity (Lmo0618): not inhibiting | effective dose against L. monocytogenes (L. monocytogenes [4]): 10 µM

CCn1c(-c2nonc2N)nc2c(C#CC(C)(C)O)ncc(OC[C@@H]3CCCN3)c21 [GSK614526A]
synergy with ceftriaxone against L. monocytogenes (L. monocytogenes [1]): can inhibit growth in concert with ceftriaxone | synergistic activity with meropenem against M. smegmatis (M. smegmatis): None

CCn1c(-c2nonc2N)nc2c(C#CC(C)(C)O)ncc(OC[C@H]3CCCNC3)c21 [GSK690693, 4-(2-(4-amino-1,2,5-oxadiazol-3-yl)-1-ethyl-7-{[(3S)-3-piperidinylmethyl]oxy}-1H-imidazo[4,5-c]pyridin-4-yl)-2-methyl-3-butyn-2-ol]
synergy with ceftriaxone against L. monocytogenes (L. monocytogenes [1]): can inhibit growth in concert with ceftriaxone | inhibition of growth in a β-lactam synergistic dependent manner (L. monocytogenes [1]; 100 μM GSK690693): inhibited L. monocytogenes growth in a β-lactam synergistic dependent manner | effective dose against L. monocytogenes (L. monocytogenes [4]): 10 µM | inhibition of PrkA enzymatic activity in vitro (PrkA [5]; [7]): can inhibit | inhibition for PrkA compared to Stk1 (PrkA [5]; biochemical): four-fold increase in inhibition | inhibition of Stk1 enzymatic activity in vitro (Stk1): can inhibit | synergistic activity with meropenem against M. smegmatis (M. smegmatis): exhibits synergy; also recorded: can work to inhibit growth synergistically with meropenem | inhibition of PknB enzymatic activity in vitro (PknB; [7]): can inhibit | inhibition for PknB compared to Stk1 (PknB; biochemical): four-fold increase in inhibition | IC50 [6]: 1200 nM | toxicity in zebrafish (zebrafish (Danio rerio)): does not induce toxicity

CCn1c(-c2nonc2N)nc2c(C#CC(C)(C)O)nc(OC[C@@H](N)c3ccccc3)cc21 [GSK938890A]
synergy with ceftriaxone against L. monocytogenes (L. monocytogenes [1]): can inhibit growth in concert with ceftriaxone | effective dose against L. monocytogenes (L. monocytogenes [4]): 10 µM | synergistic activity with meropenem against M. smegmatis (M. smegmatis): None

CCn1c(-c2nonc2N)nc2c(C#CC(C)(C)O)nc(OC[C@H](N)c3ccccc3)cc21 [GSK943949A]
synergy with ceftriaxone against L. monocytogenes (L. monocytogenes [1]): can inhibit growth in concert with ceftriaxone | synergistic activity with meropenem against M. smegmatis (M. smegmatis): None

CCn1c(-c2nonc2N)nc2c(C#CC(C)(C)O)nc(OCCNC)cc21 [GSK949675A]
synergy with ceftriaxone against L. monocytogenes (L. monocytogenes [1]): can inhibit growth in concert with ceftriaxone | effective dose against L. monocytogenes (L. monocytogenes [4]): 10 µM | synergistic activity with meropenem against M. smegmatis (M. smegmatis): None | effective dose against MSRA (MSRA): 10 µM

CCn1c(-c2nonc2N)nc2c(C#CC(C)(C)O)nc(O[C@@H](CN)c3ccccc3)cc21.O=C(O)C(F)(F)F [GSK1007102B]
synergy with ceftriaxone against L. monocytogenes (L. monocytogenes [1]): can inhibit growth in concert with ceftriaxone | synergistic activity with meropenem against M. smegmatis (M. smegmatis): showing such a synergistic effect | effect on M. smegmatis growth in the absence of a β-lactam (M. smegmatis; no additional drugs): minor affect on growth; also recorded: shows inhibition in the absence of a β-lactam

CCn1c(-c2nonc2N)nc2c(C#CC(C)(C)O)nc(CN3CCCC3)cc21 [GW1000163A]
synergy with ceftriaxone against L. monocytogenes (L. monocytogenes [1]): did not exhibit such synergistic activity | synergistic activity with meropenem against M. smegmatis (M. smegmatis): None

O=c1c2ccccc2[nH]c(=S)n1CCN1CCC(=C(c2ccc(F)cc2)c2ccc(F)cc2)CC1 [diacylglycerol kinase inhibitor II]
toxicity in zebrafish (zebrafish (Danio rerio)): highly toxic

CN[C@@H]1C[C@H]2O[C@@](C)([C@@H]1OC)n1c3ccccc3c3c4c(c5c6ccccc6n2c5c31)C(=O)NC4 [staurosporine]
susceptibility to vancomycin or kanamycin (L. monocytogenes [1]; 10 μM staurosporine): unaffected | increase in susceptibility to ceftriaxone upon overexpression of prkA (L. monocytogenes [1]; prkA^theo strain, 2 mM theophylline, 10 μM staurosporine): 10 fold | bacterial morphology by immunofluorescence microscopy (L. monocytogenes [1]; staurosporine combined with β-lactam antibiotics): grossly disrupted bacterial morphology | sensitization to lysozyme (L. monocytogenes [1]; staurosporine, data not shown): increased the sensitization | increase in susceptibility to ceftriaxone (L. monocytogenes [1]; wild type, 10 μM staurosporine): 100 fold | S. aureus susceptibility to ceftriaxone or other β-lactam or non-β-lactam antibiotics ([2]; 10 μM staurosporine): unaffected
